Data on 54 molecules can be found in US20140336182A1, “Aurora Kinase Modulators and Method of Use” (Amgen Inc., priority 2013, published 2014).

The first experiment concerns HeLa cells. Briefly: HeLa cell 24 hr ploidy assay (DNA content). The format is cell-based. Conditions: Homo sapiens, HeLa, 4N ploidy, average, read-out: 24h_4NPloidy EC50_IP (uM Avg). Here is the method:
HeLa cell 24 hr ploidy assay protocol
The purpose of this assay is to evaluate the ability of selected individual compounds to induce Deoxyribonucleic acid (DNA) content (ploidy) in cells through failed cell division. Cell cycle analysis is a rapid and efficient way to evaluate the status of DNA content (ploidy) of a given cell. HeLa cells (1×10^4 HeLa cells/well) in 100 ul of media (MEM+10% FBS) were plated in 96-well plates (Packard View) and cultured for 24 hrs at 37° C. maintained in a 5% CO2 atmosphere. […] The compounds were serially diluted in DMSO (0.25% final concentration). The cells were fixed (3.7% Formaldehyde and 1% glutaraldehyde) and permeabilized (1×PBS with 1% BSA and 0.2% Triton X-100) in preparation for nuclear staining. The well plates were stained for 45 minutes at RT in the dark using Hoechest 33342 nuclear stain at 0.5 ug.ml (Stock of 10 mg/ml, Invitrogen, CA, Cat #H3570). The nuclear stain was removed by aspiration and the cells were washed with wash buffer. A Cellomics Array Scan Vti plate reader was used to acquire the DNA ploidy data of the cells using Cell Cycle bioapplication. Numbers for each of “valid cell count/well”, “% of 4N cells” and “% of >4Ncells” were calculated with the assistance of an Activity Base 5.1ca software and dose curves were generated using an XLFit software. With XLFit, final EC50 IP and EC50 transit values, as well as the Max and Min, were calculated for each curve.
With `COc1cnc2c(Oc3ccc(Nc4nnc(-c5ccccc5)c5ccccc45)cc3)ccnc2c1` [compound 79, N-(4-((7-(methyloxy)-1,5-naphthyridin-4-yl)oxy)phenyl)-4-phenyl-1-phthalazinamine], the EC50 stood at 0.041 µM.

Consider `COc1ccc2c(Oc3ccc(Nc4nnc(-c5cc(C)ccn5)c5ccccc45)cc3)ccnc2c1` [compound 118], for which the EC50 was found to be 0.11 µM.

As for `Cc1ccc(-c2nnc(Nc3ccc(Oc4ccnc5ccccc45)c(F)c3)c3ccccc23)cc1` [compound 161], the EC50 amounted to 0.01 µM.

With `Fc1cc(Nc2nnc(-c3ccccc3)c3ccccc23)ccc1Oc1ccnc2ccccc12` [compound 115], the EC50 is 0.116 µM.

For `COc1cnc2c(Oc3ccc(Nc4nnc(-c5cccc(C#N)c5)c5ccccc45)cc3)ccnc2c1` [Example 29, 3-(4-(4-(7-methoxy-1,5-naphthyridin-4-yloxy)phenylamino)phthalazin-1-yl)benzonitrile], the EC50 stood at 0.442 µM.

Consider `COc1cnc2c(Oc3ccc(Nc4nnc(-c5ccc(C(F)(F)F)cc5)c5ccccc45)cc3)ccnc2c1` [compound 146, N-(4-((7-(methyloxy)-1,5-naphthyridin-4-yl)oxy)phenyl)-4-(4-(trifluoromethyl)phenyl)-1-phthalazinamine], for which the EC50 stood at 0.057 µM.

For `CN1CCN(c2nnc(Nc3ccc(Oc4ccnc5cc(C#N)ccc45)cc3)c3ccccc23)CC1` [compound 94], the EC50 was determined as 0.09 µM.

In the case of `COc1ccc(-c2nnc(Nc3ccc(Oc4ccnc5cc(OC)cnc45)cc3)c3ccccc23)cc1` [Example 37, N-(4-(7-methoxy-1,5-naphthyridin-4-yloxy)phenyl)-4-(4-methoxyphenyl)phthalazin-1-amine], the EC50 is 0.052 µM.

In the case of `COc1cc2ncnc(Oc3ccc(Nc4nnc(-c5cc(C)cs5)c5ccccc45)cc3)c2cc1OC` [compound 153], the EC50 came out at 0.001 µM.

Staying with this experiment, now noted: Homo sapiens, HeLa, HeLa cells, 4N ploidy, average, read-out: 24h_4NPloidy EC50_IP (uM Avg).
`COc1cnc2c(Oc3ccc(Nc4nnc(-c5ccc(C)c(C)c5)c5ccccc45)cc3)ccnc2c1` [compound 192]: the EC50 amounted to 0.005 µM.

With `COc1ccc2c(Sc3ccc(Nc4nnc(-c5ccc(Cl)cc5)c5ccccc45)cc3)ccnc2c1` [compound 334], the EC50 amounted to 0.018 µM.

With `Clc1ccc(-c2nnc(Nc3ccc(Sc4ccnc5ccncc45)cc3)c3ccccc23)nc1` [compound 430], the EC50 was determined as 0.007 µM.

For the molecule `Cc1csc(-c2nnc(Nc3ccc(Sc4ccnc5cc[nH]c45)cc3)c3ccccc23)c1` [compound 464], the EC50 was determined as 0.001 µM.

For the molecule `COc1cc2nccc(Sc3ccc(Nc4nnc(-c5ccccc5)c5ccccc45)cc3)c2cn1` [compound 353], the EC50 is 0.007 µM.

For the molecule `c1ccc(-c2nnc(Nc3ccc(Sc4ccnc5[nH]ccc45)cc3)c3ccccc23)cc1` [compound 329], the EC50 was found to be 0.057 µM.

Regarding `COc1cnc2c(Sc3ccc(Nc4nnc(N5CCn6ccnc6C5)c5ccccc45)cc3)ccnc2c1` [compound 576], the EC50 came to 0.013 µM.

`N#Cc1ccc2c(Oc3ccc(Nc4nnc(-c5ccccc5)c5ccccc45)cn3)ccnc2c1` [compound 174]: the EC50 was ≥ 1.2 µM.

Turning to `COc1cc(F)cc2nccc(Sc3ccc(Nc4nnc(-c5ccc(Cl)cc5)c5ccccc45)cc3)c12` [compound 438], the EC50 stood at 0.016 µM.

With `N#Cc1cc2nccc(Sc3ccc(Nc4nnc(-c5ccccc5)c5ccccc45)cc3)c2s1` [compound 458], the EC50 was 0.148 µM.

For the molecule `COCCn1ccc2nccc(Sc3ccc(Nc4nnc(-c5cc(C)cs5)c5ccccc45)cc3)c21` [compound 470], the EC50 is < 0.0023 µM.

Turning to `CCOc1nc(-c2nnc(Nc3ccc(Oc4ccnc5cc(OC)cnc45)cc3)c3ccccc23)cs1` [compound 175], the EC50 is 0.059 µM.

`COc1cnc2c(Oc3ccc(Nc4nnc(-c5cccc(C(=O)N(C)C)c5)c5ccccc45)cc3)ccnc2c1` [compound 226]: the EC50 is > 1.2 µM.

Take `c1ccc2c(-c3ccc4c(c3)CCO4)nnc(Nc3ccc(Oc4ccnc5ccsc45)cc3)c2c1` [compound 272]: the EC50 stood at 0.006 µM.

On to `COc1cc2nccc(Oc3ccc(Nc4nnc(-c5ccccc5)c5ccccc45)cc3)c2cc1C#N` [Example 392, 7-Methoxy-4-(4-(4-phenylphthalazin-1-ylamino)phenoxy)quinoline-6-carbonitrile], for which the EC50 is 0.085 µM.

In the case of `COc1cc2nccc(Sc3ccc(Nc4nnc(-c5ccc(Cl)cc5)c5ccccc45)cc3)c2[nH]c1=O` [Example 406, 8-(4-(4-(4-Chlorophenyl)phthalazin-1-ylamino)phenylthio)-3-methoxy-1,5-naphthyridin-2(1H)-one], the EC50 is < 0.0023 µM.

Consider `COc1cnc2c(Sc3ccc(Nc4nnc(SC)c5ccccc45)cc3)ccnc2c1` [compound 514], for which the EC50 is 0.02 µM.

In the case of `c1cnc2c(Sc3ccc(Nc4nnc(-c5ccc6c(c5)OCO6)c5ccccc45)cc3)ccnc2c1` [compound 443], the EC50 stood at 0.007 µM.

In the case of `COc1cnc2c(Sc3ccc(Nc4nnc(-c5ccc(Cl)cc5)c5ccccc45)cc3)ccnc2c1` [compound 232], the EC50 came to 0.004 µM.

With `COc1cc2nccc(Oc3ccc(Nc4nnc(-c5ccc(C)cc5)c5ccccc45)cc3)c2cc1C(N)=O` [compound 211], the EC50 was 0.002 µM.

Turning to `CCOc1nc(-c2nnc(Nc3ccc(Sc4ccnc5cc(OC)cnc45)cc3)c3ccccc23)cs1` [compound 505], the EC50 came to 0.022 µM.

Regarding `c1ccc2c(-c3ccc4c(c3)OCO4)nnc(Nc3ccc(Oc4ccnc5ccncc45)cc3)c2c1` [compound 424], the EC50 was 0.024 µM.

On to `COc1cnc2c(Sc3ccc(Nc4nnc(N5CCN(S(C)(=O)=O)CC5)c5ccccc45)cc3)ccnc2c1` [compound 605], for which the EC50 is 0.018 µM.

Regarding `CCc1cc(-c2ccc(C)cc2)nnc1Nc1ccc(Sc2ccnc3cccnc23)cc1` [compound 358], the EC50 came out at 0.035 µM.

For `COc1cnc2c(Oc3ccc(Nc4nnc(-c5ccc(SC)cc5)c5ccccc45)cc3)ccnc2c1` [compound 237], the EC50 stood at 0.03 µM.

Regarding `COc1cc(OC)c2c(Sc3ccc(Nc4nnc(-c5ccccc5)c5ccccc45)cc3)ncnc2c1` [compound 581], the EC50 was found to be 0.036 µM.

For `COc1cnc2c(Sc3ccc(Nc4nnc(-c5cccc(C)n5)c5ccccc45)cc3)ccnc2c1` [compound 420], the EC50 was determined as 0.029 µM.

For the molecule `COc1cnc2c(Oc3ccc(Nc4nnc(-c5cccc(C)c5)c5ccccc45)cc3)ccnc2c1` [compound 317], the EC50 came to 0.033 µM.

On to `COc1cnc2c(Oc3ccc(Nc4nnc(-c5ccc([S+](C)[O-])cc5)c5ccccc45)cc3)ccnc2c1` (stereo not drawn) [compound 262], for which the EC50 was > 1.2 µM.

On to `COc1cnc2c(Oc3ccc(Nc4nnc(-c5ccc(Cl)c(OCCS(C)(=O)=O)c5)c5ccccc45)cc3)ccnc2c1` [Example 394, 4-(4-Chloro-3-(2-(methylsulfonyl)ethoxy)phenyl)-N-(4-(7-methoxy-1,5-naphthyridin-4-yloxy)phenyl)phthalazin-1-amine], for which the EC50 came out at 0.045 µM.

Turning to `Brc1cnc2c(Oc3ccc(Nc4nnc(-c5ccccc5)c5ccccc45)cc3)ncnc2c1` [compound 599], the EC50 is > 1.2 µM.

With `COc1cc2nccc(Sc3ccc(Nc4nnc(-c5ccc(Cl)cc5)c5ccccc45)cc3)c2nc1OC` [compound 598], the EC50 came out at 0.028 µM.

For `Cn1cncc1-c1cc2nccc(Oc3ccc(Nc4nnc(-c5ccc(Cl)cc5)c5ccccc45)cn3)c2s1` [compound 267], the EC50 amounted to 0.013 µM.

`N#Cc1ccc2c(Oc3ccc(Nc4nnc(-c5ccc(Cl)cc5)c5ccccc45)cc3)ccnc2c1` [compound 242]: the EC50 was 0.019 µM.

In the case of `COc1cnc2c(Sc3ccc(Nc4nnc(OC(C)C)c5ccccc45)cc3)ccnc2c1` [compound 511], the EC50 turned out to be 0.094 µM.

In the case of `COc1cnc2c(Oc3ccc(Nc4nnc(-c5ccc(Cl)cc5)c5ccccc45)cn3)ccnc2c1` [compound 222, 4-(4-chlorophenyl)-N-(6-((7-(methyloxy)-1,5-naphthyridin-4-yl)oxy)-3-pyridinyl)-1-phthalazinamine], the EC50 amounted to 0.026 µM.

As for `COc1cnc2c(Sc3ccc(Nc4nnc(NCCCSC)c5ccccc45)cc3)ccnc2c1` [compound 508], the EC50 was determined as 0.072 µM.

For `Clc1ccc(-c2nnc(Nc3ccc(Oc4ncnc5[nH]ccc45)cc3)c3ccccc23)cc1` [compound 290], the EC50 came out at 0.397 µM.

For the molecule `C#Cc1ccc(-c2nnc(Nc3ccc(Oc4ccnc5cc(OC)cnc45)cc3)c3ccccc23)cc1` [compound 287], the EC50 is 0.06 µM.

With `COc1cnc2c(Oc3ccc(Nc4nnc(-c5ccccc5)c(C)c4C)cc3)ccnc2c1` [compound 281], the EC50 worked out at 0.378 µM.

As to `COc1cnc2c(Oc3ccc(Nc4nnc(-c5cnc6ccccc6c5)c5ccccc45)cc3)ccnc2c1` [compound 182], the EC50 turned out to be 0.032 µM.

With `CCOc1nnc(Nc2ccc(Sc3ccnc4cc(OC)cnc34)cc2)c2ccccc12` [compound 512], the EC50 came out at 0.033 µM.

In the case of `Cc1ccsc1-c1nnc(Nc2ccc(Oc3ccnc4cc(C#N)ccc34)cc2)c2ccccc12` [compound 184], the EC50 turned out to be 0.13 µM.

Turning to `COc1cc2ncnc(Sc3ccc(Nc4nnc(-c5ccc(Cl)cc5)c5ccccc45)cc3)c2cc1OC` [compound 418], the EC50 was determined as 0.004 µM.

Take `COc1cnc2c(Oc3ccc(Nc4nnc(-c5ccc(Cl)cc5)c5ccccc45)cc3OC)ccnc2c1` [compound 566]: the EC50 stood at 0.191 µM.
